Data published in PMC9134315, “Systemic Administration of a Brain Permeable Cdk5 Inhibitor Alters Neurobehavior” (Frontiers in Pharmacology, 2022).
Where two headings read alike, the source gives them in different places.

Assay: Pharmacokinetic profile in mice after I.V. injection (LC-MS/MS of plasma, brain, liver, kidney)
Assay type: in vivo, mouse
Conditions: for AUC(0-t): read-out: AUC24h; for concentration at 24 h: read-out: Clast; for k el: read-out: Ke (converted)
Procedure: The wild-type group housed male C57BL/6 mice 10–12 weeks of age were used for all in vivo, ex vivo, and behavioral studies. This age range was selected to be consistent with previous studies of conditional Cdk5 knockout mice ([Plattner et al., 2015]). 25–106 was administered in a 20-fold dose range intravenously (I.V.) at 10, 50, 100, and 200 mg/kg for pharmacokinetic studies. This delivery mode was used as I.V. injections to avoid first-pass drug metabolism observed using other injection methods ([Pond and Tozer, 1984]). […] All animal experiments were performed under approved protocols by the University of Alabama at Birmingham (UAB) Institutional Animal Care and Use Committees and in accordance with the guidelines of the Animal Welfare Act and the Guide for the Care and Use of Laboratory Animals.
A quantitative determination of 25–106 in mouse plasma and tissue homogenate was accomplished by the use of protein precipitation and high-performance liquid chromatography with tandem mass spectrometry detection (LC-MS/MS). 5-(N,N-hexamethylene) amiloride (HMA) was used as the internal standard (IS). 25–106 and IS were typically extracted from 50 µL of mouse plasma or tissue homogenate using protein precipitation with methanol. The extracts were analyzed by reverse-phase chromatography using an ACE Excel 3 C18-PFP column under isocratic conditions at a flow rate of 500 μL/min. The column temperature was maintained at 40°C. The mobile phase A consisted of 0.1% formic acid in water, and the mobile phase B was acetonitrile. A triple–quadrupole mass spectrometer (AB Sciex 5,000) equipped with TurboV IonSpray operating in positive-ion mode was used. Column effluents were analyzed by multiple reaction monitoring (MRM). The precursor/product transitions are 346.1 to 137.1 m/z for 25–106 and 312.37 to 129.5 m/z for IS. The calibration curve was fit using weighted (1/x^2) linear regression analysis of the 25–106/IS peak area ratio vs. the 25–106 concentration from 1.0–80.0 ng/ml (ng/g for tissue) for the low curve and 80.0–10,000 ng/ml (ng/g for tissue) for the high curve. The concentrations of incurred and quality control samples were calculated with the same regression analysis, and the results were reported in ng/mL (plasma) or ng/g (tissue) of 25–106.
To assess the pharmacokinetic and pharmacodynamic parameters of 25–106 in vivo, we utilized the LC-MS/MS detection method established above (see Figure 5). The mice were administered IV injections of 25–106 doses of 10, 50, 100, or 200 mg/kg. The animals were euthanized, and organs were harvested at 1, 2, 6, and 24 h post injection. Within the same experiment, tissues were used for biochemical analysis of 25–106 effects on Cdk5 activity (see Figures 3A, B).

[1] = male, C57BL/6, mouse, iv, brain, 10 mg/kg I.V.
[2] = male, C57BL/6, mouse, iv, brain, 50 mg/kg I.V.
[3] = male, C57BL/6, mouse, iv, brain, 100 mg/kg I.V.
[4] = male, C57BL/6, mouse, iv, brain, 200 mg/kg I.V.
[5] = male, C57BL/6, mouse, iv, kidney, 50 mg/kg I.V.
[6] = male, C57BL/6, mouse, iv, kidney, 100 mg/kg I.V.
[7] = male, C57BL/6, mouse, iv, kidney, 200 mg/kg I.V.
[8] = male, C57BL/6, mouse, iv, plasma, 10 mg/kg I.V.
[9] = male, C57BL/6, mouse, iv, plasma, 50 mg/kg I.V.
[10] = male, C57BL/6, mouse, iv, plasma, 100 mg/kg I.V.
[11] = male, C57BL/6, mouse, iv, plasma, 200 mg/kg I.V.

- detectability in the brain and plasma (24 h after injection, I.V.): remaining detectable
- demethylated metabolites detected (LC-MS/MS, mice): No demethylated metabolite structures
- V (brain, 10 mg/kg I.V.): 77.39 ± 25.63 L
- V (brain, 50 mg/kg I.V.): 151.24 ± 58.36 L
- CL (brain, 50 mg/kg I.V., 50 mg/kg): 16.57 ± 4.19 L/h
- V (brain, 100 mg/kg I.V.): 126.99 ± 46.68 L
- CL (brain, 100 mg/kg I.V., 100 mg/kg): 17.75 ± 6.77 L/h
- V (brain, 200 mg/kg I.V.): 76.07 ± 73.66 L
- Clast (kidney, 10 mg/kg I.V.): 163 ± 41.67 ng/mL
- Clast (kidney, 50 mg/kg I.V.): 109.33 ± 42.90 ng/mL
- V (kidney, 50 mg/kg I.V.): 78.88 ± 16.88 L
- Clast (kidney, 100 mg/kg I.V.): 119.88 ± 51.83 ng/mL
- V (kidney, 100 mg/kg I.V.): 172.86 ± 89.05 L
- Clast (kidney, 200 mg/kg I.V.): 146.45 ± 87.11 ng/mL
- V (kidney, 200 mg/kg I.V.): 163.98 ± 55.79 L
- Clast (liver, 10 mg/kg I.V.): 85.18 ± 32.60 ng/mL
- Clast (liver, 50 mg/kg I.V.): 252.73 ± 200.06 ng/mL
- Clast (liver, 100 mg/kg I.V.): 150.9 ± 103.92 ng/mL
- Clast (liver, 200 mg/kg I.V.): 310.9 ± 247.48 ng/mL
- clearance (male, C57BL/6, mouse, brain, iv, 10 mg/kg, 10 mg/kg I.V.): 66.3 mL/min
- Cmax (male, C57BL/6, mouse, brain, iv, 10 mg/kg, brain, 10 mg/kg I.V., read-out: Cmax): 101 ± 23.6 ng/g
- clearance (male, C57BL/6, mouse, brain, iv, 50 mg/kg, 50 mg/kg I.V.): 275 mL/min
- Cmax (male, C57BL/6, mouse, brain, iv, 50 mg/kg, brain, 50 mg/kg I.V., read-out: Cmax): 118 ± 76.7 ng/g
- clearance (male, C57BL/6, mouse, brain, iv, 100 mg/kg, 100 mg/kg I.V.): 295 mL/min
- Cmax (male, C57BL/6, mouse, brain, iv, 100 mg/kg, brain, 100 mg/kg I.V., read-out: Cmax): 377 ± 289 ng/g
- clearance (male, C57BL/6, mouse, brain, iv, 200 mg/kg, 200 mg/kg I.V.): 188 mL/min
- Cmax (male, C57BL/6, mouse, brain, iv, 200 mg/kg, brain, 200 mg/kg I.V., read-out: Cmax): 669 ± 316 ng/g
- half-life [1]: 17.2 ± 10.4 h
- AUC(0-t) [1]: 80 ± 20 ng·h/mL
- concentration at 24 h [1]: 2.27 ± 1.44 ng/mL
- k el [1]: 1.67e-05 s⁻¹
- half-life [2]: 6.23 ± 1.12 h
- AUC(0-t) [2]: 90 ± 30 ng·h/mL
- concentration at 24 h [2]: 2.73 ± 1.75 ng/mL
- k el [2]: 3.06e-05 s⁻¹
- half-life [3]: 5.03 ± 0.69 h
- AUC(0-t) [3]: 180 ± 70 ng·h/mL
- concentration at 24 h [3]: 2.88 ± 1.16 ng/mL
- k el [3]: 3.89e-05 s⁻¹
- half-life [4]: 4.39 ± 1.19 h
- AUC(0-t) [4]: 960 ± 860 ng·h/mL
- concentration at 24 h [4]: 14 ± 14.5 ng/mL
- k el [4]: 4.72e-05 s⁻¹
- AUC(0-t) (male, C57BL/6, mouse, iv, kidney, 10 mg/kg I.V.): 6300 ± 1690 ng·h/mL
- half-life [5]: 10.2 ± 2.99 h
- AUC(0-t) [5]: 7640 ± 1280 ng·h/mL
- k el [5]: 1.94e-05 s⁻¹
- half-life [6]: 13 ± 4.56 h
- AUC(0-t) [6]: 9420 ± 3060 ng·h/mL
- k el [6]: 1.67e-05 s⁻¹
- half-life [7]: 9.65 ± 5.34 h
- AUC(0-t) [7]: 14400 ± 4630 ng·h/mL
- k el [7]: 2.5e-05 s⁻¹
- AUC(0-t) (male, C57BL/6, mouse, iv, liver, 10 mg/kg I.V.): 3080 ± 1010 ng·h/mL
- AUC(0-t) (male, C57BL/6, mouse, iv, liver, 50 mg/kg I.V.): 2760 ± 980 ng·h/mL
- AUC(0-t) (male, C57BL/6, mouse, iv, liver, 100 mg/kg I.V.): 3320 ± 1280 ng·h/mL
- AUC(0-t) (male, C57BL/6, mouse, iv, liver, 200 mg/kg I.V.): 5440 ± 1950 ng·h/mL
- half-life [8]: 6.5 ± 2.36 h
- AUC(0-t) [8]: 5710 ± 2260 ng·h/mL
- concentration at 24 h [8]: 16.3 ± 7 ng/mL
- k el [8]: 3.06e-05 s⁻¹
- half-life [9]: 7.48 ± 0.41 h
- AUC(0-t) [9]: 6930 ± 930 ng·h/mL
- concentration at 24 h [9]: 69.7 ± 16.2 ng/mL
- k el [9]: 2.5e-05 s⁻¹
- half-life [10]: 8.37 ± 1.77 h
- AUC(0-t) [10]: 8380 ± 780 ng·h/mL
- concentration at 24 h [10]: 79.2 ± 16 ng/mL
- k el [10]: 2.5e-05 s⁻¹
- half-life [11]: 11 ± 6.38 h
- AUC(0-t) [11]: 12000 ± 1740 ng·h/mL
- concentration at 24 h [11]: 149 ± 94.1 ng/mL
- k el [11]: 2.22e-05 s⁻¹
- Cmax (male, C57BL/6, mouse, kidney, iv, 10 mg/kg, kidney, 10 mg/kg I.V., read-out: Cmax): 2950 ng/g
- clearance (male, C57BL/6, mouse, kidney, iv, 50 mg/kg, 50 mg/kg I.V.): 92.5 mL/min
- Cmax (male, C57BL/6, mouse, kidney, iv, 50 mg/kg, kidney, 50 mg/kg I.V., read-out: Cmax): 1190 ng/g
- clearance (male, C57BL/6, mouse, kidney, iv, 100 mg/kg, 100 mg/kg I.V.): 154 mL/min
- Cmax (male, C57BL/6, mouse, kidney, iv, 100 mg/kg, kidney, 100 mg/kg I.V., read-out: Cmax): 2580 ng/g
- clearance (male, C57BL/6, mouse, kidney, iv, 200 mg/kg, 200 mg/kg I.V.): 227 mL/min
- Cmax (male, C57BL/6, mouse, kidney, iv, 200 mg/kg, kidney, 200 mg/kg I.V., read-out: Cmax): 4660 ng/g
- Cmax (male, C57BL/6, mouse, liver, iv, 10 mg/kg, liver, 10 mg/kg I.V., read-out: Cmax): 1760 ± 526 ng/g
- Cmax (male, C57BL/6, mouse, liver, iv, 50 mg/kg, liver, 50 mg/kg I.V., read-out: Cmax): 513 ± 22 ng/g
- Cmax (male, C57BL/6, mouse, liver, iv, 100 mg/kg, liver, 100 mg/kg I.V., read-out: Cmax): 868 ± 378 ng/g
- Cmax (male, C57BL/6, mouse, liver, iv, 200 mg/kg, liver, 200 mg/kg I.V., read-out: Cmax): 2810 ng/g
- clearance (male, C57BL/6, mouse, plasma, iv, 10 mg/kg, 10 mg/kg I.V.): 1 mL/min
- Cmax (male, C57BL/6, mouse, plasma, iv, 10 mg/kg, plasma, 10 mg/kg I.V., read-out: Cmax): 2570 ng/mL
- clearance (male, C57BL/6, mouse, plasma, iv, 50 mg/kg, 50 mg/kg I.V.): 3.33 mL/min
- Cmax (male, C57BL/6, mouse, plasma, iv, 50 mg/kg, plasma, 50 mg/kg I.V., read-out: Cmax): 1380 ng/mL
- clearance (male, C57BL/6, mouse, plasma, iv, 100 mg/kg, 100 mg/kg I.V.): 5.33 mL/min
- Cmax (male, C57BL/6, mouse, plasma, iv, 100 mg/kg, plasma, 100 mg/kg I.V., read-out: Cmax): 2580 ng/mL
- clearance (male, C57BL/6, mouse, plasma, iv, 200 mg/kg, 200 mg/kg I.V.): 7.17 mL/min
- Cmax (male, C57BL/6, mouse, plasma, iv, 200 mg/kg, plasma, 200 mg/kg I.V., read-out: Cmax): 2320 ng/mL
- V (plasma, 10 mg/kg I.V.): 0.49 ± 0.08 L
- V (plasma, 50 mg/kg I.V.): 2.14 ± 0.34 L
- V (plasma, 100 mg/kg I.V.): 3.85 ± 0.55 L
- Cmax (plasma, 100 mg/kg I.V., 100 mg/kg): 2,577.50 ± 1,004.73 Ng/ml
- V (plasma, 200 mg/kg I.V.): 6.12 ± 2.08 L
- Cmax (plasma, 200 mg/kg I.V., 200 mg/kg): 2,322.50 ± 972.71 Ng/ml
SMILES: COc1cc(CC(=O)Nc2cc(C3CCC3)[nH]n2)cc(OC)c1OC [25–106, N-(5-cyclobutyl-1H-pyrazol-3-yl)-2-(3,4,5-trimethoxyphenyl)acetamide]
